Data from patent US20230165980A1, “METHODS FOR RADIOLABELING PSMA BINDING LIGANDS AND THEIR KITS” (Novartis AG, priority 2020, published 2023).

Assay: API assay stability of the freeze dried kit (external calibration curve)
Assay type: physicochemical
Conditions: final formulation kit
Description: Stability tests were performed on the freeze dried product containing the final formulation. […] Kits manufactured with the final formulation, indeed, were stored at different stability conditions (2-8° C.; 25° C. and 40° C.) and were tested at different time points for API-assay, Radiochemical Purity and Radiochemical Stability of the radiolabelled product. Radiochemical Purity and Stability were assessed only eluting IRE Generator which represented the most stressful condition in terms of Radioactive Concentration (Volumic Activity).

SMILES: O=C(O)CCc1ccc(O)c(CN(CCN(CC(=O)O)Cc2cc(CCC(=O)NCCCCCC(=O)NCCCC[C@H](NC(=O)N[C@@H](CCC(=O)O)C(=O)O)C(=O)O)ccc2O)CC(=O)O)c1 [PSMA-11]
- API quantitation, 1. injection (3 months at 2-8° C.): 28.87 µg
- API quantitation, 2. injection (3 months at 2-8° C.): 29.21 µg
- API quantitation, 3. injection (3 months at 2-8° C.): 28.44 µg
- API quantitation, Average (3 months at 2-8° C.): 28.84 µg
- API quantitation, 1. injection (3 months at 25° C.): 28.19 µg
- API quantitation, 2. injection (3 months at 25° C.): 29.57 µg
- API quantitation, 3. injection (3 months at 25° C.): 28.33 µg
- API quantitation, Average (3 months at 25° C.): 28.70 µg
- API quantitation, 1. injection (3 months at 40° C.): 28.17 µg
- API quantitation, 2. injection (3 months at 40° C.): 28.05 µg
- API quantitation, 3. injection (3 months at 40° C.): 28.06 µg
- API quantitation, Average (3 months at 40° C.): 28.10 µg
- API quantitation, 1. injection (6 months at 2-8° C.): 29.79 µg
- API quantitation, 2. injection (6 months at 2-8° C.): 29.61 µg
- API quantitation, 3. injection (6 months at 2-8° C.): 29.43 µg
- API quantitation, Average (6 months at 2-8° C.): 29.61 µg
- API quantitation, 1. injection (6 months at 25° C.): 29.35 µg
- API quantitation, 2. injection (6 months at 25° C.): 29.31 µg
- API quantitation, 3. injection (6 months at 25° C.): 29.06 µg
- API quantitation, Average (6 months at 25° C.): 29.24 µg
- API quantitation, 1. injection (6 months at 40° C.): 28.81 µg
- API quantitation, 2. injection (6 months at 40° C.): 28.87 µg
- API quantitation, 3. injection (6 months at 40° C.): 28.98 µg
- API quantitation, Average (6 months at 40° C.): 28.89 µg
- API quantitation, 1. injection (Release (Manufacturing date)): 28.31 µg
- API quantitation, 2. injection (Release (Manufacturing date)): 28.76 µg
- API quantitation, 3. injection (Release (Manufacturing date)): 27.40 µg
- API quantitation, Average (Release (Manufacturing date)): 28.15 µg
